Measured values: patent US20020148006A1, “Transgenic plants with modified sterol compositions” (Asgrow Seed Company, L.L.C., priority 1996, published 2002)
Entries after “also recorded” stand apart in the source; their conditions may differ.

Tested on: (S)-adenosyl-L-methionine: Δ^24-sterol methyl transferase (SMT)
Assay: Sterol specificity (substrate methylation) of SMT enzyme from 4-day corn seedlings
Assay type: biochemical, Zea mays (corn)
Conditions: soluble SMT; (C2), second methyl transfer
Method: The sterol specificity of the microsome-bound and soluble SMT enzyme from 4-day corn seedlings was determined in order to elucidate the enzymatic basis for the plant sterols identified in Example 1.

In the case of C=C(CC[C@@H](C)[C@H]1CC[C@@]2(C)C3=C(CC[C@]12C)[C@@]1(C)CC[C@H](O)[C@@H](C)[C@@H]1CC3)C(C)C [Obtusifoliol], the “% Activity, relative to cycloartenol methylation” value is reported as 0 (C2) %.

Tested on: Heliothis zea
Assay: Sterol utilization and metabolism by Heliothis zea reared on artificial diet with sterol supplement
Conditions: Table 11; insect tissues, RP-HPLC and GC-MS
Method: Heliothis zea (corn earworm) was reared on an artificial diet treated with different sterol supplements to study the relation between sterol structure and utilization in insects. H. zea eggs were used to establish a disease-free stock colony.
The stock insects were reared using sterile procedures on a pinto bean-based diet. Moths were fed 10% sucrose. Cultures were maintained at 27±1° C., at 40±10% relative humidity on a 14:10 light-dark photoperiod and an artificial diet was used to rear the insects on different sterol supplements. The experimental diet contained agar, which is known to contain trace contamination of cholesterol, otherwise the experimental diet was sterol-free.
Sterols were solubilized in acetone. Aliquots of the solutions were added to the sterol-free diet in a mortar, the material mixed thoroughly with the diet, and the organic solvent allowed to evaporate. Sterols were supplied to the medium at 200 ppm (equivalent to 1 mg of sterol per experimental vessel containing one insect).
By day 20, H. zea larva are in the final stage of larval development (sixth instar), after which the insects may pupate. A single neonate larva was placed in an experimental culture vial and allowed to grow for 20 days. The fresh weight, length and instar stage of 20-day larva were recorded.
In some treatments, the larvae were allowed to grow for another 4 days to determine whether they could pupate properly and develop into moth forms.
These fatty alcohols may comigrate with sterols during some forms of chromatography and interfere with sterol quantitation, particularly of cholesterol. Therefore, in order to confirm the identity and amount of cholesterol in the insect an aliquot of the NSF was injected into a HPLC column and the fraction corresponding to cholesterol was examined by GC-MS.

First: C/C=C(/CCC(C)C1CCC2C3CC=C4CC(O)CCC4(C)C3CCC12C)C(C)C (centres unmarked) [Isofucosterol]
Second: CCC(/C=C/C(C)C1CCC2C3CC=C4CC(O)CCC4(C)C3CCC12C)C(C)C (centres unmarked) [Stigmasterol, stigmasterol]
The “Sterol composition (as % total sterol): ts” value of the first is lower: 8% for the first, 15% for the second.

Going from CCC(=CC[C@@H](C)[C@H]1CC[C@H]2[C@@H]3CC=C4CC(O)CC[C@]4(C)[C@H]3CC[C@]12C)C(C)C (some centres unmarked) [24-Ethyl cholesta-5,23-dienol] to 24-Methyl cholesta-5,24-dienol, the “Sterol composition (as % total sterol): ts” value falls from 86% to 65%.

First: C/C=C(\CC[C@@H](C)[C@H]1CC[C@H]2[C@@H]3CC=C4C[C@@H](O)CC[C@]4(C)[C@H]3CC[C@]12C)C(C)C [Fucosterol]
Second: 24-methyl cholesta-5,23-dienol [24-Methylcholesta-5,23-dienol]
The “Sterol composition (as % total sterol): ts” value of the first is lower: 10% for the first, 80% for the second.

First: CCC(=CC[C@@H](C)[C@H]1CC[C@H]2[C@@H]3CC=C4CC(O)CC[C@]4(C)[C@H]3CC[C@]12C)C(C)C (some centres unmarked) [24-Ethyl cholesta-5,23-dienol]
Second: 24-Methyl cholesta-5,24-dienol
The “Sterol composition (as % total sterol): cholesterol” value of the first is lower: 14% for the first, 35% for the second.

In the case of “24-methyl cholesta-5,23-dienol [24-Methylcholesta-5,23-dienol]”, the “Sterol composition (as % total sterol): cholesterol” value is reported as 20%.

Same assay, conditions: Table 11; sterol 200 ppm in diet

First: C/C=C(/CCC(C)C1CCC2C3CC=C4CC(O)CCC4(C)C3CCC12C)C(C)C (centres unmarked) [Isofucosterol]
Second: C=C(C)C(CC)CCC(C)C1CCC2C3CC=C4CC(O)CCC4(C)C3CCC12C (centres unmarked) [Clereosterol]
The “Instar reached by day 20” value of the first is higher: 6 for the first, 3 for the second.

First: CCC(/C=C/C(C)C1CCC2C3CC=C4CC(O)CCC4(C)C3CCC12C)C(C)C (centres unmarked) [Stigmasterol, stigmasterol]
Second: CC(C)CCC[C@@H](C)[C@H]1CC[C@@]2(C)C3=C(CC[C@]12C)[C@@]1(C)CC[C@H](O)C(C)(C)[C@@H]1CC3 [24-Dihydrolanosterol]
The “Instar reached by day 20” value of the first is higher: 6 for the first, 3 for the second.

24-Ethyl cholesta-5,24-dienol and CCC(=CC[C@@H](C)[C@H]1CC[C@H]2[C@@H]3CC=C4CC(O)CC[C@]4(C)[C@H]3CC[C@]12C)C(C)C (some centres unmarked) [24-Ethyl cholesta-5,23-dienol] are the same in “Instar reached by day 20” value: 3 for the first, 3 for the second.

Going from 24-Methyl cholesta-5,24-dienol to C/C=C(\CC[C@@H](C)[C@H]1CC[C@H]2[C@@H]3CC=C4C[C@@H](O)CC[C@]4(C)[C@H]3CC[C@]12C)C(C)C [Fucosterol], the “Instar reached by day 20” value rises from 3 to 6.

C=C(CC[C@@H](C)[C@H]1CC[C@H]2[C@@H]3CC=C4CC(O)CC[C@]4(C)[C@H]3CC[C@]12C)C(C)C (some centres unmarked) [24(28)-Methylenecholesterol, 24(28)-methylenecholesterol] and CC[C@@H](CC[C@@H](C)[C@H]1CC[C@H]2[C@@H]3CC=C4C[C@@H](O)CC[C@]4(C)[C@H]3CC[C@]12C)C(C)C [Clionasterol] are the same in “Instar reached by day 20” value: 6 for the first, 6 for the second.

In the case of “24-methyl cholesta-5,23-dienol [24-Methylcholesta-5,23-dienol]”, the “Instar reached by day 20” value is reported as 5.

Same assay, conditions: Table 11; sterol 200 ppm in diet; 20-day larvae; relative to growth on cholesterol normalized to 100%

First: C/C=C(/CCC(C)C1CCC2C3CC=C4CC(O)CCC4(C)C3CCC12C)C(C)C (centres unmarked) [Isofucosterol]
Second: C=C(C)C(CC)CCC(C)C1CCC2C3CC=C4CC(O)CCC4(C)C3CCC12C (centres unmarked) [Clereosterol]
The Growth response of the first is higher: 100% for the first, 20% for the second.

Going from CCC(/C=C/C(C)C1CCC2C3CC=C4CC(O)CCC4(C)C3CCC12C)C(C)C (centres unmarked) [Stigmasterol, stigmasterol] to CC(C)CCC[C@@H](C)[C@H]1CC[C@@]2(C)C3=C(CC[C@]12C)[C@@]1(C)CC[C@H](O)C(C)(C)[C@@H]1CC3 [24-Dihydrolanosterol], the Growth response falls from 100% to 5%.

Going from 24-Ethyl cholesta-5,24-dienol to CCC(=CC[C@@H](C)[C@H]1CC[C@H]2[C@@H]3CC=C4CC(O)CC[C@]4(C)[C@H]3CC[C@]12C)C(C)C (some centres unmarked) [24-Ethyl cholesta-5,23-dienol], the Growth response rises from 10% to 20%.

Compared with 24-Methyl cholesta-5,24-dienol, C/C=C(\CC[C@@H](C)[C@H]1CC[C@H]2[C@@H]3CC=C4C[C@@H](O)CC[C@]4(C)[C@H]3CC[C@]12C)C(C)C [Fucosterol] is higher in Growth response: 5% for the first, 100% for the second.

C=C(CC[C@@H](C)[C@H]1CC[C@H]2[C@@H]3CC=C4CC(O)CC[C@]4(C)[C@H]3CC[C@]12C)C(C)C (some centres unmarked) [24(28)-Methylenecholesterol, 24(28)-methylenecholesterol] and CC[C@@H](CC[C@@H](C)[C@H]1CC[C@H]2[C@@H]3CC=C4C[C@@H](O)CC[C@]4(C)[C@H]3CC[C@]12C)C(C)C [Clionasterol] are the same in Growth response: 100% for the first, 100% for the second.

In the case of “24-methyl cholesta-5,23-dienol [24-Methylcholesta-5,23-dienol]”, the Growth response is reported as 50%.

Same assay, conditions: in vivo

Compared with C=C(C)C(CC)CCC(C)C1CCC2C3CC=C4CC(O)CCC4(C)C3CCC12C (centres unmarked) [Clereosterol], C=C(CC[C@@H](C)[C@H]1CC[C@H]2[C@@H]3CC=C4CC(O)CC[C@]4(C)[C@H]3CC[C@]12C)C(C)C (some centres unmarked) [24(28)-Methylenecholesterol, 24(28)-methylenecholesterol] is higher in “Sterol composition (as % total sterol): cholesterol” value: 20% for the first, 84% for the second.

Compared with C=C(C)C(CC)CCC(C)C1CCC2C3CC=C4CC(O)CCC4(C)C3CCC12C (centres unmarked) [Clereosterol], C=C(CC[C@@H](C)[C@H]1CC[C@H]2[C@@H]3CC=C4CC(O)CC[C@]4(C)[C@H]3CC[C@]12C)C(C)C (some centres unmarked) [24(28)-Methylenecholesterol, 24(28)-methylenecholesterol] is lower in “Sterol composition (as % total sterol): ts” value: 80% for the first, 16% for the second.

Going from C=C(C)C(CC)CCC(C)C1CCC2C3CC=C4CC(O)CCC4(C)C3CCC12C (centres unmarked) [Clereosterol] to C=C(CC[C@@H](C)[C@H]1CC[C@H]2[C@@H]3CC=C4CC(O)CC[C@]4(C)[C@H]3CC[C@]12C)C(C)C (some centres unmarked) [24(28)-Methylenecholesterol, 24(28)-methylenecholesterol], the Total sterol µg/insect rises from 3 µg/insect to 59 µg/insect.

Same assay, conditions: test sterol as sole added dietary sterol

With 24-methyl cholesta-5,25(27)-dienol the “Utilization by H. zea / support of larval growth and development (words)” value (“Utilization by H. zea / support” for short) was “non-utilizable”.
With C/C=C(/CCC(C)C1CCC2C3CC=C4CC(O)CCC4(C)C3CCC12C)C(C)C (centres unmarked) [Isofucosterol] the “Utilization by H. zea / support” value was “supported larval growth to late-sixth instar”.
For CCC(/C=C/C(C)C1CCC2C3CC=C4CC(O)CCC4(C)C3CCC12C)C(C)C (centres unmarked) [Stigmasterol, stigmasterol], the “Utilization by H. zea / support” value was “supported larval growth to late-sixth instar”.
In the case of C/C=C(\CC[C@@H](C)[C@H]1CC[C@H]2[C@@H]3CC=C4C[C@@H](O)CC[C@]4(C)[C@H]3CC[C@]12C)C(C)C [Fucosterol], the “Utilization by H. zea / support” value is reported as “supported larval growth to late-sixth instar”.
With C=C(CC[C@@H](C)[C@H]1CC[C@H]2[C@@H]3CC=C4CC(O)CC[C@]4(C)[C@H]3CC[C@]12C)C(C)C (some centres unmarked) [24(28)-Methylenecholesterol, 24(28)-methylenecholesterol] the “Utilization by H. zea / support” value was “supported larval growth to late-sixth instar”.
For CC[C@@H](CC[C@@H](C)[C@H]1CC[C@H]2[C@@H]3CC=C4C[C@@H](O)CC[C@]4(C)[C@H]3CC[C@]12C)C(C)C [Clionasterol], the “Utilization by H. zea / support” value was “supported larval growth to late-sixth instar”.
In the case of “24-methyl cholesta-5,23-dienol [24-Methylcholesta-5,23-dienol]”, the “Utilization by H. zea / support” value is reported as “non-utilizable; also recorded: #deformities. Insects in the nonutilizable category generally weighed less than 100 mg per insect and their length ranged from 2 to 15 mm, with 6 to 12 insects alive at day 20”.

Tested on: (S)-adenosyl-L-methionine: Δ^24-sterol methyl transferase (SMT)
Assay: Effect of substrate and transition state analog inhibitors on soluble SMT enzyme from 4-day seedlings
Assay type: biochemical, Zea mays (corn)
Conditions: soluble SMT, 4-day seedlings; NA = no inhibition; read-out: Ki relative to the second methyl transfer

CC=C(CCC(C)C1CCC2C3=CCC4C(C)C(O)CCC4(C)C3CCC21C)C(C)C (centres unmarked) [Z-24(28)-Ethylidene lophenol] showed a Ki of 75 µM.

Same assay, conditions: soluble corn SMT

CC=C(CCC(C)C1CCC2C3=CCC4C(C)C(O)CCC4(C)C3CCC21C)C(C)C (centres unmarked) [Z-24(28)-Ethylidene lophenol] was tested, and the “Effect on the first methyl transfer” value was “not affecting the first methyl transfer”.
